Experimental data reported in article PMC3409115, “Diverse Inhibitor Chemotypes Targeting Trypanosoma cruzi CYP51” (PLoS Neglected Tropical Diseases, 2012).

target: T1, T. cruzi CYP51 (Trypanosoma cruzi, UniProt Q7Z1V1); test: HTS spectral-mode binding screen, type II difference spectra scored 0-5; conditions: spectral mode, four serial dilutions 2 µM to 12.5 µM, 2 µM CYP51
T1 construct: had the first 21 residues upstream of K22 replaced with the fragment MAKKKKK; His6 (C); made in house
T1 sequence (Q7Z1V1 15-481, looked up, natural form): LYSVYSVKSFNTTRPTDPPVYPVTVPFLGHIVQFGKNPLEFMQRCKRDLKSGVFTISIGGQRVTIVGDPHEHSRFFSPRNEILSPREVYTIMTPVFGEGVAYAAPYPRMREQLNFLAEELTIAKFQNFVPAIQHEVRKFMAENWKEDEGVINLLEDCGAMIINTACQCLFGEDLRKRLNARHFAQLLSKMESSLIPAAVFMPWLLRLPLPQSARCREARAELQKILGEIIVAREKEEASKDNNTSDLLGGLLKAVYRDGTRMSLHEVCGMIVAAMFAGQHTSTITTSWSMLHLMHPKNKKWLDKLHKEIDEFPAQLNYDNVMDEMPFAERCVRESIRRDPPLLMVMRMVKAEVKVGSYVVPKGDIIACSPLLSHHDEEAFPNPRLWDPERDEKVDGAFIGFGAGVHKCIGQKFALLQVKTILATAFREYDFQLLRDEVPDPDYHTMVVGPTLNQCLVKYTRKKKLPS

| SMILES | HTS binding score |
| --- | --- |
| COC(=O)C1=C(N)Oc2cc(C)oc(=O)c2C1c1cccnc1 (centres unmarked) [Compound 73] | 4 |
| COCc1cc(C)nc2c1C(=O)NC(c1cccnc1)N2Cc1ccccc1 (centres unmarked) [Compound 124] | 4 |
| Cc1cc(C=C2C(=O)c3ccccc3C2=O)c(C)n1-c1ccncc1 [Compound 85] | 4 |
| O=C(CCCSc1nc(-c2ccco2)cc(C(F)(F)F)n1)NCc1ccncc1 [Compound 156] | 4 |
| CCN(Cc1ccncc1)/C(S)=N/CCc1ccccc1 [Compound 59] | 5 |
| OC1=C2C(=Nc3nc(-c4cccnc4)nn3C2c2ccc(Cl)cc2)CCC1 (centres unmarked) [Compound 128] | 4 |
| COc1cccc(-c2noc(C(=O)NCCCn3ccnc3)n2)c1 [Compound 84] | 4 |
| CCn1c(C(=O)NCc2cccnc2)cc2oc3ccccc3c21 [Compound 79] | 4 |
| CC(C)(C)NC(=O)c1cccc(NC(=O)c2ccc3c(c2)C(=O)N(Cc2cccnc2)C3=O)c1 [Compound 176] | 4 |
| COc1ccc(-c2nc3n(n2)C(c2cccnc2)C2=C(O)CCCC2=N3)cc1 (centres unmarked) [Compound 122] | 5 |
| CCCCNC(=O)c1cc(-c2ccncc2)nc2ccccc12 [Compound 63] | 5 |
| CC1=C(C(=O)OC2CCCC2)C(c2ccncc2)C2=C(O)CC(C)(C)CC2=N1 (centres unmarked) [Compound 129] | 4 |
| Cc1cc(Cl)ccc1OCCCC(=O)NCc1cccnc1 [Compound 77] | 4 |
| O=C(NCCCn1ccnc1)C1CC(c2cccc(Br)c2)=NO1 (centres unmarked) [Compound 126] | 4 |
| O=P(Nc1cccnc1)(Oc1ccccc1Cl)Oc1ccccc1Cl [Compound 138] | 5 |
| C=CCOc1ccc(C2c3c(-c4ccccc4O)n[nH]c3C(=O)N2Cc2ccncc2)cc1OCC (centres unmarked) [Compound 181] | 5 |
| COc1cc(OC)cc(-c2cc3nc(C)c(CCC(=O)Nc4cccnc4)c(C)n3n2)c1 [Compound 163] | 4 |
| O=C(CSc1nc(-c2ccc(F)cc2)cc(C(F)(F)F)n1)NCc1ccncc1 [Compound 155] | 4 |
| N=C(NOC(=O)c1ccc(Br)o1)c1ccncc1 [Compound 69] | 4 |
| O=C(CSCc1c(Cl)cccc1Cl)NCc1cccnc1 [Compound 102] | 4 |
| O=C(c1ccncc1)N(Cc1ccccc1)Cc1ccccc1 [Compound 61] | 4 |
| O=C(Nc1ccc(F)cc1)c1ccc2c(c1)C(=O)N(Cc1cccnc1)C2=O [Compound 125] | 4 |

| SMILES | HTS binding score |
| --- | --- |
| N#CC1=C(N)Oc2nc(SCc3ccc(Cl)cc3)nc(N)c2C1c1cccnc1 (centres unmarked) [Compound 158] | 4 |
| N=C(NOS(=O)(=O)c1ccc(Cl)cc1)c1ccncc1 [Compound 71] | 5 |
| Cc1sc(NC(=O)c2ccco2)c(C(c2cccnc2)N2CCN(CCO)CC2)c1C (centres unmarked) [Compound 168] | 4 |
| COc1cc(OC)cc(-c2cc3nc(C)c(CCC(=O)NCc4cccnc4)c(C)n3n2)c1 [Compound 171] | 5 |
| CCc1nc(SCc2cccnc2)c(C#N)c(C(F)(F)F)c1C [Compound 97] | 5 |
| O=C(NCc1cccnc1)c1ccc(COc2ccccc2Cl)o1 [Compound 103] | 4 |
| COc1ccc2nc3oc(C(=O)NCc4cccnc4)cc3cc2c1 [Compound 90] | 5 |
| CCc1cc2c(cc3c(=O)n(CC(=O)NCc4cccnc4)ncn32)s1 [Compound 118] | 4 |
| O=C(NCc1cccnc1)c1cc2nc(-c3ccco3)cc(C(F)(F)Cl)n2n1 [Compound 143] | 5 |
| CC1=NN(C(=O)COc2ccccc2C)C(O)(c2cccnc2)C1 (centres unmarked) [Compound 83] | 4 |
| CC(C)N(CCc1ccncc1)/C(S)=N/C1CCCCC1 [Compound 64] | 5 |
| Cc1c(C(=O)Nc2ccncc2)sc2nc(-c3ccccc3)cn12 [Compound 92] | 4 |
| O=C(CCCCCN1C(=O)c2cccc3cccc(c23)C1=O)NCc1cccnc1 [Compound 141] | 4 |
| COc1ccc(CNc2nc3ccccc3c3nc(-c4ccncc4)nn23)cc1 [Compound 132] | 5 |
| COc1ccccc1C(=O)O/N=C(\c1ccccc1)c1ccncc1 [Compound 89] | 4 |
| Nc1cc(NC(=O)c2cccc(Cl)c2)cc(Oc2cccnc2)c1 [Compound 100] | 4 |
| COc1cc(NS(=O)(=O)c2ccc(Nc3nc(-c4cccnc4)cs3)cc2)nc(OC)n1 [Compound 177] | 4 |
| Cc1ccccc1CSCc1ccc(C(=O)NCc2cccnc2)o1 [Compound 113] | 4 |
| CCCC/N=C(\S)N1CCn2cccc2C1c1cccnc1 (centres unmarked) [Compound 74] | 4 |
| COc1cccc(CNCc2cccnc2)c1OCc1ccc(Cl)cc1 [Compound 120] | 4 |
| COc1cc(OC)cc(-c2nc3n(n2)C(c2ccncc2)C2=C(O)CC(C)(C)CC2=N3)c1 (centres unmarked) [Compound 162] | 4 |
| O=C(NCCCn1ccnc1)c1ccccc1Br [Compound 66] | 4 |

| SMILES | HTS binding score |
| --- | --- |
| CC(NC(=O)C12CC3CC(C1)CC(n1cncn1)(C3)C2)C12CC3CC(CC(C3)C1)C2 (centres unmarked) [Compound 148] | 4 |
| O=C(Cc1cccc(O)c1)Nc1cc(-c2ccncc2)cnc1O [Compound 80] | 4 |
| Cc1ccc(S(=O)(=O)N(CC(=O)Nc2cccnc2)c2cccc(C(F)(F)F)c2)cc1 [Compound 172] | 4 |
| O=C(c1ccc(Cl)cc1)C(Oc1ccc(Cl)cc1)n1cncn1 (centres unmarked) [Compound 107] | 5 |
| Cn1c(=O)c2c(nc(NCc3cccnc3)n2Cc2cccc3ccccc23)n(C)c1=O [Compound 161] | 4 |
| Cc1n[nH]c(C)c1CCc1nc2c3ccccc3nc(NCc3cccnc3)n2n1 [Compound 140] | 5 |
| c1cc(-c2nnn(CCOCCn3nnc(-c4ccncc4)n3)n2)ccn1 [Compound 117] | 4 |
| COC(=O)c1sccc1NC(=O)CSCCc1ccncc1 [Compound 96] | 4 |
| O=C(NCCc1ccncc1)Nc1ccc(Cl)c(Cl)c1 [Compound 70] | 4 |
| Cc1ccc(S(=O)(=O)NCCCOC(=O)Nc2ccncc2)cc1 [Compound 110] | 5 |
| O=C(CSc1nc(-c2cccs2)cc(C(F)(F)F)n1)NCc1ccncc1 [Compound 150] | 4 |
| CC(C)c1nnc(N2C(=O)c3oc4ccccc4c(=O)c3C2c2cccnc2)s1 (centres unmarked) [Compound 144] | 4 |
| N=C(NOC(=O)/C=C/c1ccccc1Cl)c1ccncc1 [Compound 60] | 4 |
| COc1ccc(-c2cc(C(F)(F)F)nc(NCc3cccnc3)n2)cc1OC [Compound 137] | 4 |
| O=C1C2(c3ccccc3)CN3CC1(c1ccccc1)CN(C2)C3c1cccnc1 (centres unmarked) [Compound 130] | 4 |
| Cc1ccc(S(=O)(=O)N(CC(=O)NCc2cccnc2)c2cccc(Br)c2)cc1 [Compound 180] | 4 |
| COc1cc(OC)cc(C(=O)Nc2ccc(Cc3ccncc3)cc2)c1 [Compound 108] | 4 |
| COc1cccc(C2C(C(=O)Nc3cccnc3)=C(C)Nc3nc(-c4cccc(C)c4)nn32)c1OC (centres unmarked) [Compound 182] | 4 |
| Cc1cc(Cl)ccc1OCCCC(=O)NCc1ccncc1 [Compound 78] | 4 |
| C=CCn1c(=O)c(C(=O)NCc2ccncc2)c(O)c2ccccc21 [Compound 94] | 4 |
| O=C1C(c2ccncc2)N(CCC2=CCCCC2)C(=O)CN1C1CCCCC1 (centres unmarked) [Compound 131] | 4 |
| Cc1nnc(NCc2cccnc2)c2c1nnn2Cc1ccc(F)cc1 [Compound 109] | 5 |

| SMILES | HTS binding score |
| --- | --- |
| O=S(=O)(NCc1csc(-c2cccnc2)n1)c1ccc(Br)cc1 [Compound 149] | 5 |
| Cn1c(SCc2nc(-c3ccc(Cl)cc3)no2)nnc1-c1ccncc1 [Compound 134] | 5 |
| O=C(CCc1nc(-c2ccc(Cl)cc2)no1)Nc1cccnc1 [Compound 86] | 4 |
| O=C(NCc1cccnc1)/C(=C\c1cccc(Oc2ccccc2)c1)S(=O)(=O)c1ccccc1 [Compound 178] | 4 |
| Cc1sc2nc(SCC(=O)NCCCn3ccnc3)nc(O)c2c1C [Compound 127] | 4 |
| O=C(c1cc(-c2ccncc2)nc2ccccc12)N1CCCCC1 [Compound 76] | 5 |
| CCOC(=O)C1=C(C)N(C)C(C)=C(C(=O)OCC)C1c1ccncc1 [Compound 104] | 5 |
| CCC(C)(C)c1ccc(OCC(=O)Nc2ccncc2)cc1 [Compound 58] | 4 |
| COc1ccc(CNc2nc(-c3cccnc3)nn2S(=O)(=O)c2ccccc2)cc1 [Compound 154] | 4 |
| C/C(=N\OC(=O)c1c(-c2ccccc2Cl)noc1C)c1ccncc1 [Compound 115] | 5 |
| CC1=C(C(=O)Nc2ccc(F)cc2F)C(c2cccnc2)C2=C(O)CC(C)(C)CC2=N1 (centres unmarked) [Compound 159] | 4 |
| CCOC(=O)c1cc(-c2ccc(C)cc2)n(CCC(=O)NCc2cccnc2)c1C [Compound 146] | 5 |
| CCO/C(O)=C1/C(C)=NC2=C(C(=O)CC(c3ccccc3)C2)C1c1cccnc1 (centres unmarked) [Compound 136] | 4 |
| COc1ccc(S(=O)(=O)NC(C)c2ccc(-n3ccnc3)cc2)c2ccccc12 (centres unmarked) [Compound 147] | 4 |
| O=S(=O)(c1ccc(-c2csc(-c3cccnc3)n2)cc1)N1CCCC1 [Compound 121] | 4 |
| COC(=O)C1=C(N)Oc2cc(C)n(CCCn3ccnc3)c(=O)c2C1c1ccc(Cl)cc1 (centres unmarked) [Compound 175] | 4 |
| COc1ccc(C(=O)C(OC(=O)c2ccncc2)c2ccccc2)cc1 (centres unmarked) [Compound 106] | 4 |
| c1ccc(-c2cc(NCCCn3ccnc3)n3c(n2)nc2ccccc23)cc1 [Compound 119] | 4 |
| O=c1c2cnn(-c3ccc(Cl)cc3)c2ncn1Cc1cccnc1 [Compound 98] | 5 |
| COc1ccc(-c2cc(C(=O)NCc3cccnc3)[nH]n2)cc1 [Compound 68] | 4 |
